Tested on: dengue virus
Experiment: Intracellular nucleoside triphosphate concentration needed to inhibit 50% of viral production (NTP50) in PBMC
Type: cell-based
Experimental: NTP50 is defined as the concentration of the nucleoside triphosphate (NTP) that will inhibit 50% of viral production. The NTP50 experiment was performed using cryopreserved PBMC as described above in the Dengue EC50 determination section. Briefly, PBMC was thawed and incubated in RPMI medium containing 2% Fetal Bovine serum (FBS), 1% Penicillin/Streptomycin supplemented with various concentration of a representative compound of the present invention (e.g., Example 2) up to 100 μM. After the intracellular conversion of Example 2 into corresponding nucleoside triphosphate reached steady state (24 hours at 37° C. in the incubator), the cells were spun down, washed with 0.9% NaCl solution and lyzed in RIPA buffer (50 mM Tris pH 7.5, 150 mM NaCl, 1% NP40) containing with protease and phosphotase inhibitor. The cells were further incubated at room temperature for complete lysis of the cells and the cell debris spun down at 13,000 g in at 4° C. for 20 minutes. The lysate was transferred into […] and the concentration of the nucleoside triphosphate was measured. The concentration of the nucleoside triphosphate was then plotted against the concentration of Example 2 and a curve of the concentration of the nucleoside triphosphate vs incubated Example 2 was generated using Michaelis-Menten Kinetics with the formula Y=A[Example 2]/B+[Example 2] where Y is the concentration of the nucleoside triphosphate and [Example 2] is the concentration of the compound Example 2. A and B were constants determined by best fitting. By EC50 of [Example 2] in the equation, the intracellular concentration of nucleoside triphosphate which corresponds to 50% reduction of the virus (NTP50) can be determined.
Since all compounds of the present invention would be converted to the same nucleoside triphosphate intracellularly (the structure of NTP is shown below), the NTP50 of all compounds of the present invention would be the same regardless which compound was used in the experiment. NTP50 for the compound Example 2 was measured to be 0.0016 μM in PBMC lysate from 1 million cells with 100 μL of lysis buffer. The Mean Corpuscular Volume of PBMC is approximately 0.3×10^−6 μL/per cell=0.3 μL/1 million cells. By using the literature of Simiele, M. et al. Antimicrob. Agents Chemother. 2011 55, 2976-2978, NTP50=0.0016×(100/0.3)=0.53 μM/1 million cells=0.53×0.3/1.0×10^6=0.159×10^−6 μmol/1 million cells. Thus, from the calculation, the intracellular nucleoside triphosphate concentration needed to inhibit 50% of viral production (NTP50) is around ˜200 fmol/1 million cells.

SMILES: CCOc1nc(N)nc2c1ncn2[C@@H]1O[C@@H]2CO[P@@](=O)(N[C@@H](C)C(=O)OC(C)C)O[C@H]2[C@@]1(C)F [Example 2, (S)-isopropyl 2-(((2S,4aR,6R,7R,7aR)-6-(2-amino-6-ethoxy-9H-purin-9-yl)-7-fluoro-7-methyl-2-oxidotetrahydro-4H-furo[3,2-d][1,3,2]dioxaphosphinin-2-yl)amino)propanoate]
- NTP50 (in PBMC lysate from 1 million cells with 100 μL of lysis buffer): 0.0016 µM
- NTP50 (intracellular amount, calculated): 0.159×10^−6 μmol/1 million cells
- NTP50 (intracellular amount, rounded from the calculation): ~200 fmol/1 million cells
- NTP50 (intracellular, corrected with PBMC volume 0.3 μL/1 million cells): 0.53 μM/1 million cells

From US20140205566A1, “CYCLIC NUCLEUOSIDE DERIVATIVES AND USES THEREOF” (NOVARTIS AG, priority 2012, published 2014)
